In patent publication US20240299303A1, “NANOSTRUCTURE OR MICROSTRUCTURE AND METHOD FOR PRODUCING SAME” (The University of Tokyo, priority 2021, published 2024):

Key:
Assay type in all cases: physicochemical
[1] = Introduction of molecules into crosslinked body of porous microstructural body (UV-visible, supernatant); conditions: adsorption from aqueous dispersion; Example 10
Protocol: A low-molecular weight compound was added, and caused to adsorb, to the aqueous dispersion of the porous γ-PPG4k-Plate crosslinked body, and then the porous γ-PPG4k-Plate crosslinked body was sedimented by centrifugation. The concentration of the low-molecular weight compound present in the supernatant liquid obtained at that time was determined by a UV-visible spectral method. Thus, the amount of the low-molecular weight compound adsorbing to the porous γ-PPG4k-Plate crosslinked body was determined.

[2] = Introduction of compounds into nanosheets, absorbance of supernatant after centrifugation; conditions: for introduction amount relative to the weight of the nanosheets: Examples 4-8; for introduction amount relative to the weight of the nanosheets / Weight of introduced compound/weight of nanosheets: crosslinked β-cyclodextrin nanosheets; for Weight of introduced compound/weight of nanosheets: Table 1; for Concentration of introduced compound before introduction: in nanosheet dispersion, defined in consideration of dilution with moisture in the dispersion; for Concentration of introduced compound before introduction / Concentration of introduced compound after introduction: nanosheets 43 mg/mL (Examples 4-6) or 17 mg/mL (Examples 7-8); for amount of compound introduced into the nanosheets (reduction in concentration before and after introduction): nanosheets 43 mg/mL (Examples 4-6) or 17 mg/mL (Example 8); for Concentration of introduced compound after introduction: supernatant after shaking at room temperature 48 hours and centrifugation, absorbance
Protocol: 700 Microliters of an aqueous solution (300 μg/mL) of 5-fluorouracil was added to 500 mg of the nanosheet dispersion-1 obtained in Example 1, and the mixture was shaken at room temperature for 48 hours. The nanosheet dispersion having introduced thereinto 5-fluorouracil was centrifuged (at 12,000 rpm for 10 minutes), and the supernatant liquid was collected.
The introduction amount of 5-fluorouracil was determined by the same process as that of Example 4 except that a concentration-absorbance calibration curve was produced at a predetermined wavelength (λ=270 nm).
700 Microliters of an aqueous solution (100 μg/mL) of hydrocortisone was added to 500 mg of the nanosheet dispersion-1 obtained in Example 1, and the mixture was shaken at room temperature for 48 hours. The nanosheet dispersion having introduced thereinto hydrocortisone was centrifuged (at 12,000 rpm for 10 minutes), and the supernatant liquid was collected.
The introduction amount of hydrocortisone was determined by the same process as that of Example 4 except that a concentration-absorbance calibration curve was produced at a predetermined wavelength (λ250 nm).
500 Microliters of an aqueous solution (30 μg/mL) of betamethasone was added to 100 mg of the nanosheet dispersion-1 obtained in Example 1, and the mixture was shaken at room temperature for 48 hours. The nanosheet dispersion having introduced thereinto betamethasone was centrifuged (at 12,000 rpm for 10 minutes), and the supernatant liquid was collected.
The introduction amount of betamethasone was determined by the same process as that of Example 4 except that a concentration-absorbance calibration curve was produced at a predetermined wavelength (λ=250 nm).
500 Microliters of an aqueous solution (30 μg/mL) of menadione was added to 100 mg of the nanosheet dispersion-1 obtained in Example 1, and the mixture was shaken at room temperature for 48 hours. The nanosheet dispersion having introduced thereinto menadione was centrifuged (at 12,000 rpm for 10 minutes), and the supernatant liquid was collected.
The introduction amount of menadione was determined by the same process as that of Example 4 except that a concentration-absorbance calibration curve was produced at a predetermined wavelength (λ=250 nm).

[3] = Introduction of molecules into porous nanosheet crosslinked body (UV-visible, supernatant); conditions: adsorption from aqueous dispersion; Example 9
Protocol: A low-molecular weight compound was added, and caused to adsorb, to the aqueous dispersion of the porous γ-plu108-NS crosslinked body, and then the porous γ-plu108-NS crosslinked body was sedimented by centrifugation. The concentration of the low-molecular weight compound present in the supernatant liquid obtained at that time was determined by a UV-visible spectral method. Thus, the amount of the low-molecular weight compound adsorbing to the porous γ-plu108-NS crosslinked body was determined.

[4] = Introduction of rhodamine B into crosslinked nanosheets (fluorescence microscope); conditions: rhodamine B 100 μg/mL aqueous solution, shaken room temperature 24 hours, diluted fivefold
Protocol: 900 Microliters of an aqueous solution (100 μg/mL) of rhodamine B was added to 50 mg of the nanosheet dispersion-1 (sample IT-162) obtained in Example 1, and the mixture was shaken at room temperature for 24 hours. […] The results are shown in FIG. 10(A) and FIG. 10(B), respectively. The crystal structures of nanosheets were able to be observed with the phase-contrast microscope.

[5] = Introduction of rhodamine B into uncrosslinked nanosheets (fluorescence microscope); conditions: rhodamine B 1,000 μg/mL aqueous solution, shaken room temperature 24 hours
Protocol: 100 Microliters of an aqueous solution (1,000 μg/mL) of rhodamine B was added to 90 mL of the uncrosslinked nanosheet dispersion (sample IT-142) obtained in Comparative Example 1, and the mixture was shaken at room temperature for 24 hours. […] The results are shown in FIG. 11(A) and FIG. 11(B), respectively. The crystal structures of nanosheets were able to be observed with the phase-contrast microscope.

O=C(O)CCCC[C@@H]1SC[C@@H]2NC(=O)N[C@@H]21 [biotin]
introduction into the porous γ-PPG4k-Plate crosslinked body [1]: not introduced

CC1=CC(=O)c2ccccc2C1=O [Menadione, menadione]
introduction amount relative to the weight of the nanosheets [2]: 0.09 wt %
Weight of introduced compound/weight of nanosheets [2]: 0.09%
Concentration of introduced compound before introduction [2]: 25000 ng/mL
amount of compound introduced into the nanosheets (reduction in concentration before and after introduction) [2]: 15 µg/mL
Concentration of introduced compound after introduction [2]: 10000 ng/mL

O=c1[nH]cc(F)c(=O)[nH]1 [5-Fluorouracil, 5-fluorouracil]
introduction amount relative to the weight of the nanosheets [2]: 0.10 wt %
Weight of introduced compound/weight of nanosheets [2]: 0.10%
Concentration of introduced compound before introduction [2]: 183000 ng/mL
amount of compound introduced into the nanosheets (reduction in concentration before and after introduction) [2]: 45 µg/mL
Concentration of introduced compound after introduction [2]: 138000 ng/mL

O=C(O)c1cccnc1 [nicotinic acid]
introduction into the porous γ-PPG4k-Plate crosslinked body [1]: not introduced

O=c1ccc2ccccc2o1 [coumarin]
ratio of the weight of the low-molecular weight compound to the total sum of the weights of the compound and the porous γ-plu108-NS crosslinked body [3]: 0.5 wt %
ratio of the weight of the low-molecular weight compound to the total sum of the weights of the compound and the porous γ-PPG4k-Plate crosslinked body [1]: 0.6 wt %

CCN(CC)c1ccc2c(-c3ccccc3C(=O)O)c3ccc(=[N+](CC)CC)cc-3oc2c1.[Cl-] [rhodamine B]
fluorescent coloring in the crystal structures (rhodamine B introduction) [4]: fluorescent coloring was observed
fluorescent coloring in the crystal structures (rhodamine B introduction) [5]: almost no fluorescent coloring was observed
introduction into the porous γ-PPG4k-Plate crosslinked body [1]: not introduced

CCN[C@H]1C[C@H](C)S(=O)(=O)c2sc(S(N)(=O)=O)cc21 [dorzolamide]
introduction into the porous γ-PPG4k-Plate crosslinked body [1]: not introduced

C[C@]12CCC(=O)C=C1CC[C@@H]1[C@@H]2[C@@H](O)C[C@@]2(C)[C@H]1CC[C@]2(O)C(=O)CO [Hydrocortisone, hydrocortisone]
introduction amount relative to the weight of the nanosheets [2]: 0.08 wt %
Weight of introduced compound/weight of nanosheets [2]: 0.08%
Concentration of introduced compound before introduction [2]: 61000 ng/mL
amount of compound introduced into the nanosheets (reduction in concentration before and after introduction) [2]: 35 µg/mL
Concentration of introduced compound after introduction [2]: 26000 ng/mL

CCCCC/C=C\C/C=C\CCCCCCCC(=O)O [linoleic acid]
ratio of the weight of the low-molecular weight compound to the total sum of the weights of the compound and the porous γ-plu108-NS crosslinked body [3]: 5.3 wt %
ratio of the weight of the low-molecular weight compound to the total sum of the weights of the compound and the porous γ-PPG4k-Plate crosslinked body [1]: 0.9 wt %
